“And” between values parts separate entries of the source, which are not always exact repeats. Equal entries are not always repeated.

The target of the first test is T1, Cysteinyl leukotriene receptor 1 (Cavia porcellus) (UniProt Q2NNR5).
T1 sequence (whole entry): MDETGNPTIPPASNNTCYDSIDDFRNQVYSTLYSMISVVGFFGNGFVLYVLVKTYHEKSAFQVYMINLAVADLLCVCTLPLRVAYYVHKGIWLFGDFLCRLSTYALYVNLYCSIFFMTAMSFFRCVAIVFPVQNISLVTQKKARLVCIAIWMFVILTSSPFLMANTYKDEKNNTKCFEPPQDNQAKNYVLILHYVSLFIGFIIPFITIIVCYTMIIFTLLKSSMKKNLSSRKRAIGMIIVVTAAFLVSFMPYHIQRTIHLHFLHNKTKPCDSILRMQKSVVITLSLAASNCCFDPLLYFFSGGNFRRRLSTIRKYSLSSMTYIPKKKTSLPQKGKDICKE
The test is described as follows: Antagonistic activity in vitro against leukotriene-D4 (LTD4) induced guinea pig ileum contraction. It counts as functional, tissue-based.
By pKB is commonly meant −log10 of the KB, conventionally taken in molar units. Take `c1cc(OCc2ccc3ccccc3n2)cc(-c2nnn(Cc3ccccc3-c3nn[nH]n3)n2)c1`: the pKB was 9.1.

The next test has as its system Cysteinyl leukotriene receptor (Cavia porcellus). In words: In vitro inhibition of leukotriene D4 induced contractions of isolated guinea pig ileum.
`O=C(O)c1cc(F)ccc1Cn1nnc(-c2cccc(/C=C/c3ccc4ccc(Cl)cc4n3)c2)n1` displayed a pKB of 9.1. `O=C(O)c1ccccc1Cn1nnc(-c2cccc(/C=C/c3ccc4ccccc4n3)c2)n1` returned a pKB of 8.5. Consider `COc1cc(C(=O)O)ccc1Cn1nnnc1-c1cccc(/C=C/c2ccc3ccccc3n2)c1`, for which the pKB was determined as 8.2. `O=C(O)c1sccc1Cn1nnc(-c2cccc(/C=C/c3ccc4ccc(Cl)cc4n3)c2)n1` displayed a pKB of 7.8. Still for that read-out and setting: then `O=C(O)c1ccccc1Cn1nnc(-c2cccc(OCc3nc4ccccc4s3)c2)n1`, with 8.3; and `O=C(O)c1ccccc1Cn1nnc(-c2cccc(OCc3ccc4ccccc4n3)c2)n1`, with 8.3 and 8.4. Consider `O=C(O)c1ccccc1Cn1nnc(-c2cccc(CSc3ccc4ccccc4n3)c2)n1`, for which the pKB was found to be 7. `O=C(O)c1ccccc1Cn1nnnc1-c1cccc(OCc2ccc3ccccc3n2)c1` came in with a negative logarithm of the KB (pKB) of 6.5. For the compound `O=C(O)c1ccccc1CCn1nnc(-c2cccc(/C=C/c3ccc4ccc(Cl)cc4n3)c2)n1`, the pKB was 7.9. With `COc1cc(C(=O)O)ccc1Cn1nnc(-c2cccc(/C=C/c3ccc4ccccc4n3)c2)n1`, the pKB was found to be 7.4.

`O=C(O)Cc1ccccc1Cn1nnc(-c2cccc(OCc3ccc4ccccc4n3)c2)n1` yielded a pKB of 7.6.

As for `COc1cccc(C(=O)O)c1Cn1nnc(-c2cccc(OCc3ccc4ccccc4n3)c2)n1`, the pKB turned out to be 8.4.

With `O=C(O)c1ccccc1Cn1nnc(-c2cccc(/C=C/c3ccc4ccc(Cl)cc4n3)c2)n1`, the pKB came out at 8.8. For `O=C(O)c1ccoc1Cn1nnc(-c2cccc(/C=C/c3ccc4ccccc4n3)c2)n1`, the pKB amounted to 7.9.

`O=C(O)c1ccccc1Cn1nnc(-c2cccc(OCc3ccc4ccc(Cl)cc4n3)c2)n1` displayed a pKB of 8.7.

Regarding `O=C(O)c1cccc(Cn2nnc(-c3cccc(/C=C/c4ccc5ccccc5n4)c3)n2)c1`, the pKB worked out at 7.1. In turn, `O=C(O)Cc1ccccc1Cn1nnc(-c2cccc(/C=C/c3ccc4ccccc4n3)c2)n1` showed a pKB of 7.7.

The record behind these values is ChEMBL document CHEMBL1126269, “Optimization of the quinoline and substituted benzyl moieties of a series of phenyltetrazole leukotriene D4 receptor antagonists” (J Med Chem, 1992).
